From patent US10751311B2, “Compositions and methods of using modified release solabegron for lower urinary tract symptoms” (VELICEPT THERAPEUTICS, INC., priority 2014, dated 2020)

Key:
[1] = molecular target: T1, beta-3 adrenoceptor (Rattus norvegicus, UniProt P26255); assay: Determination of EC90 concentration to inhibit EFS-induced contraction in rat isolated bladder (pilot CCRC); assay type: cell-based; conditions: PSS with 1 μM prazosin and 30 nM ICI118551, EFS 15 Hz
T1 construct: The bladder longitudinal smooth muscle, with the urothelium still attached were mounted in 25 ml organ baths; from tissue; host or cells: isolated bladder longitudinal smooth muscle strips (urothelium attached) from male CD rats
T1 sequence (P26255 whole entry): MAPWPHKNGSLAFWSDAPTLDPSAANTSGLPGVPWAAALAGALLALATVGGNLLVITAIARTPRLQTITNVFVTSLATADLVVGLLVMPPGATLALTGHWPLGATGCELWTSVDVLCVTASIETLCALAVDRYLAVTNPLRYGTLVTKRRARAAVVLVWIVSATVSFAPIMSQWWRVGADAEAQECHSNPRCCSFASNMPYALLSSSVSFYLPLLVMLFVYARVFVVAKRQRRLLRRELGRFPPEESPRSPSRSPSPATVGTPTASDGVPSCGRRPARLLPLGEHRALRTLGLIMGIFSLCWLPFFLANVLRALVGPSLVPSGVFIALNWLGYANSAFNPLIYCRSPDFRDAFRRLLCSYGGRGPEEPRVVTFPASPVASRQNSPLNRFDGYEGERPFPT
Method: Macroscopically normal bladders obtained from Male CD rats (220-250 g) were used. […] Each bladder was cleaned free of surrounding connective tissue and halved longitudinally. The bladder longitudinal smooth muscle, with the urothelium still attached were mounted in 25 ml organ baths containing physiological saline solution (PSS) (composition: 119.0 mM NaCl, 4.7 mM KCl, 1.2 mM MgSO4, 24.9 mM NaHCO3, 1.2 mM KH2PO4, 2.5 mM CaCl2 and 11.1 mM glucose) supplemented with 1 μM prazosin (α1-adrenoceptor antagonist) and 30 nM ICI118551 (β2-adrenoceptor antagonist), aerated with 95% O2/5% CO2 gas mix, warmed and maintained at approximately 37° C. throughout the experiment. Changes in force production were recorded using transducers. […]
In initial experiments the parameters for the EFS were assessed by performing a frequency curve to determine a frequency that would give a response that was approximately 80% of the response seen to 80 mM KCl. Optimal EFS parameters were determined to be: 30 Volts, square pulse of 0.1 ms, train of 4 seconds every 120 seconds, 15 Hz. […]
Pilot studies to determine EC90 concentrations of the test compounds were performed. […] From the data obtained in these experiments, EC90 concentrations of the test compounds were determined for use in subsequent experiments. […]

[2] = molecular target: T1, beta-3 adrenoceptor; assay: Receptor desensitization: CCRC after incubation with the EC90 concentration and PSS washout, EFS-stimulated rat bladder strips; assay type: cell-based
Method: Macroscopically normal bladders obtained from Male CD rats (220-250 g) were used. […] Each bladder was cleaned free of surrounding connective tissue and halved longitudinally. The bladder longitudinal smooth muscle, with the urothelium still attached were mounted in 25 ml organ baths containing physiological saline solution (PSS) (composition: 119.0 mM NaCl, 4.7 mM KCl, 1.2 mM MgSO4, 24.9 mM NaHCO3, 1.2 mM KH2PO4, 2.5 mM CaCl2 and 11.1 mM glucose) supplemented with 1 μM prazosin (α1-adrenoceptor antagonist) and 30 nM ICI118551 (β2-adrenoceptor antagonist), aerated with 95% O2/5% CO2 gas mix, warmed and maintained at approximately 37° C. throughout the experiment. Changes in force production were recorded using transducers. After mounting, the bladder halves were allowed to equilibrate for at least 30 min before they were set to a stable tension of approximately 1.0 g. The tissue was then allowed to equilibrate over at least a 60 min period with washes every 15 min.
In initial experiments the parameters for the EFS were assessed by performing a frequency curve to determine a frequency that would give a response that was approximately 80% of the response seen to 80 mM KCl. Optimal EFS parameters were determined to be: 30 Volts, square pulse of 0.1 ms, train of 4 seconds every 120 seconds, 15 Hz. This frequency was then used to stimulate the tissue for all subsequent experiments. The viability of bladder strips was tested by stimulating the tissue with EFS for minimum of ten minutes.
The bladder muscle strips were incubated with the EC90 determined for each test compound in the pilot studies, for a period of 1 or 3 hr. Following compound incubation, the tissues were washed with PSS for a period of 1, 3 or 6 hr, with washes approximately every 15 min, to remove the drug. At the end of the final wash period the tissues were stimulated with EFS, and left to equilibrate for at least 30 min. A CCRC was then performed in each tissue. Tissue responses were calculated as the mean (SEM) and expressed as percentage of EFS induced tone.
Tissues were incubated with the EC90 concentration of the test compounds for one hr followed by one hr, three hr or six hr of washing with PSS. […] This EFS-induced potentiation of bladder contraction from baseline was not observed with solabegron.
In the next series of experiments, tissues were incubated with the EC90 concentration of the test compounds for three hr followed by either one hr, three hr or six hr of washing with PSS.

[3] = Absorption of solabegron in regions of the GI tract; assay type: in vivo; conditions: solabegron and pharmaceutical salts thereof
Description: (§1) For example, some compounds are differentially absorbed in different regions of the GI tract. […] Under these improved conditions, a second release of solabegron and absorption will result. Additionally, methods for the release of solabegron in the distal GI tract based on pH are presented herein.

[4] = women with moderate to severe OAB; cited from earlier work
[5] = pH-dependent solubility of solabegron; assay type: physicochemical
Description: as §1

[6] = three hr incubation with EC90 concentration, one hr of washing

| Structure (SMILES) | EC90 [1] [nM] | Response to agonist (CCRC, reduction of EFS-induced tone) versus vehicle-incubated tissue [2, 6] | Absorption in the GI tract [3] | Effect on symptoms of overactive bladder [4] | Safety, tolerability, adverse events compared to placebo [4] | Response to agonist (CCRC, reduction of EFS-induced tone) versus vehicle-incubated tissue ([2]; one hr incubation with EC90 concentration, one hr of washing) | Response to agonist (CCRC, reduction of EFS-induced tone) versus vehicle-incubated tissue ([2]; one hr incubation with EC90 concentration, three hr of washing, higher concentrations) | Response to agonist (CCRC, reduction of EFS-induced tone) versus vehicle-incubated tissue ([2]; three hr incubation with EC90 concentration, three hr of washing, highest concentrations) | Solubility [5] |
| --- | --- | --- | --- | --- | --- | --- | --- | --- | --- |
| C[C@H](Cc1ccc2c(c1)OC(C(=O)[O-])(C(=O)[O-])O2)NC[C@H](O)c1cccc(Cl)c1.[Na+].[Na+] [CL-316,243, reference compound] | 42 | significantly attenuated |  |  |  |  |  |  |  |
| O=C(O)c1cccc(-c2cccc(NCCNC[C@H](O)c3cccc(Cl)c3)c2)c1 [solabegron, 3′-[(2-{[(2R)-2-(3-chlorophenyl)-2-hydroxyethyl]amino}ethyl)amino]biphenyl-3-carboxylic acid] | 1000 | significantly attenuated | optimum absorption in the proximal GI tract | significantly reduce the symptoms of overactive bladder | safe, well-tolerated, and does not demonstrate significant differences in adverse events as compared to placebo | significantly attenuated | significantly attenuated | significantly attenuated | pH-dependent solubility |
